Laboratory results from PMC6582486, “Stapled EGFR peptide reduces inflammatory breast cancer and inhibits additional HER-driven models of cancer” (Journal of Translational Medicine, 2019).
Marks after values point to notes of the source that are not given here. Where a SMILES comes first, the peptide text is derived from it. Bridges are numbered along the chain shown (N, C = ends). [ ]: non-standard residue; d: D form. R8 = C=CCCCCCC[C@@](C)(N)C(=O)O; S5 = C=CCCC[C@](C)(N)C(=O)O

Experiments:
[1] = test system: grade 3 invasive ductal breast carcinoma PDX TM01278; assay: Breast cancer PDX mouse model TM01278; assay type: in vivo
From the text: The following PDX mouse models were generated by Jackson Labs (Sacramento, CA): Breast TM01278; Grade 3 invasive ductal carcinoma, primary malignancy; EGFR inactivating R521K mutation; ERBB3 G1288A mutation in kinase domain with unknown effects on activity; increased EGFR/ERBB2/ERBB3. Lung TM00784; Grade 3 lung adenocarcinoma, primary malignancy; EGFR activating L858R mutation; increased EGFR, decreased ERBB2/ERBB3/ERBB4. All animals were maintained as outlined by University of Arizona Institutional Animal Care and Use Committee (IACUC) by the Experimental Mouse Shared Resource (EMSR).
Fig. 4 SAH5-EJ1 effectively treats models of basal and inflammatory breast cancers while increasing survival. a Changes in tumor burden in breast cancer PDX mouse model TM01278 with various concentrations of intravenous SAH5-EJ1. Control represents water as a vehicle control. *p < 0.05 (Control vs 1 µg/g); **p < 0.01 (Control vs 1 µg/g and vs 10 µg/g). N = 6 for each condition. b Kaplan–Meier curve of breast PDX mouse model treated with control (blue) or either 1 or 10 µg/g SAH5-EJ1 (green and red, respectively) (red asterisks indicate time point at which mice could no longer receive injections due to site toxicity). Data shown represent mean. N = 6 for all groups. c Cell viability assay performed in SUM149 cells over 3 days comparing treatment with Sapitinib (blue) to SAH5-EJ1 (red) and SAH5-CP (grey). […]

[2] = 28-day toxicity study: clinical chemistry; assay type: in vivo, CD-1 mice; settings: day 29, mean ± SD
Description: Toxicology was performed by IITRI. The study was conducted in compliance with the US Food and Drug Administration (FDA) good laboratory practice (GLP) Regulations (Code of Federal Regulations Title 21 Part 58) to evaluate the toxicokinetics, local tolerability, immunogenicity, and potential toxicity of SAH5-EJ1 following three times per week intravenous (IV) dosing for 28 days in mice. Male and female CD-1 IGS [Crl:CD1(ICR)] mice (135 per sex) were received from Wilmington, MA-based Charles River Laboratories, Inc.’s Kingston facility (Stone Ridge, NY).

[3] = test system: CHO cells; assay: Cell viability assay (MTT), CHO; assay type: cell-based, Chinese Hamster; settings: 5 µM (Fig. 1h)
From the text: Fig. 1 Hydrocarbon stapling leads to increased EJ1 activity in comparison to HER-directed monoclonal therapies. a EJ1 sequence with PTD4 domain (underlined) corresponding to EGFR juxtamembrane domain sequence 643–663. Stabilized alpha helix (SAH) variations 1–5 beneath, with asterisks (*) indicating sites of staple. Control peptide (CP) with altered residues indicated by double underline. Stapled control (5) asterisks (*) indicate sites of staple. b Cartoon representation of EJ1 structure, with staple variation 5 highlighted. Positively charged residues indicated in blue, negatively charged residues in red. c Cartoon representation of CP structure, with staple variation highlighted. d Cell viability assay performed in MDA-MB-468 cells after 24 h comparing unstapled EJ1 versus staple variations SAH1, SAH4, and SAH5, with increasing concentrations. e Visualization of MDA-MB-468 cells untreated, treated with 10 µM EJ1, and 10 µM SAH5-EJ1 after 60 min. Scale bars represent 50 µm. f–h Cell viability assay performed in MDA-MB-468, MCF10A, or CHO cells over 3 days comparing treatment with Sapitinib (blue lines), SAH5-EJ1 (red lines), and SAH5-CP (grey lines). […] Absorbance was read at 540 nm by plate reader (uQuant, Bio-Tek Instruments). P-values were calculated from a one-way ANOVA.

For `CC[C@H](C)[C@H](NC(=O)[C@H](Cc1c[nH]cn1)NC(=O)[C@H](CCCNC(=N)N)NC(=O)[C@H](CCCNC(=N)N)NC(=O)[C@H](CCCNC(=N)N)NC(=O)[C@H](CCSC)NC(=O)[C@H](Cc1ccccc1)NC(=O)[C@H](C)NC(=O)[C@H](CCCNC(=N)N)NC(=O)[C@H](C)NC(=O)[C@H](CCC(N)=O)NC(=O)[C@H](CCCNC(=N)N)NC(=O)[C@H](C)NC(=O)[C@H](C)NC(=O)[C@H](C)NC(=O)[C@H](CCCNC(=N)N)NC(=O)[C@H](C)NC(=O)[C@@H](N)Cc1ccc(O)cc1)C(=O)N[C@H](C(=O)N[C@@H](CCCNC(=N)N)C(=O)N[C@@H](CCCCN)C(=O)N[C@@H](CCCNC(=N)N)C(=O)N[C@]1(C)CCCCCCC=CCCC[C@@](C)(C(=O)N[C@@H](CCCNC(=N)N)C(=O)N[C@@H](CCC(=O)O)C(N)=O)NC(=O)[C@H](CCC(N)=O)NC(=O)[C@H](CC(C)C)NC(=O)[C@H](CC(C)C)NC(=O)[C@H](CCCNC(=N)N)NC(=O)[C@H](CCCNC(=N)N)NC(=O)[C@H](CC(C)C)NC1=O)C(C)C` [SAH5-EJ1] (H-YARAAARQARAFMRRRHIVRKR[R8]LRRLLQ[S5]RE-NH2; staple 23-30), the increase in survival ([1]; 1 µg/g IV vs control, N = 6) was 2.5 fold, the “time on study at which all remaining mice were sacrificed due to toxicity at the injection site” value ([1]; 10 µg/g IV) was 41 days and the ALP ([2]; female, 5 mg/kg, N = 5) was 88 ± 33.2 IU/L. The ALT ([2]; female, 5 mg/kg, N = 5) was 79 ± 35.0 IU/L, the AST ([2]; female, 5 mg/kg, N = 5) was 80 ± 8.3^a IU/L and the BUN ([2]; female, 5 mg/kg, N = 5) was 19 ± 2.2 mg/dL. For the same molecule, the TBIL ([2]; female, 5 mg/kg, N = 5) was 0.2 ± 0.05 mg/dL, the ALP ([2]; female, 10 mg/kg, N = 5) was 70 ± 48.4 IU/L and the ALT ([2]; female, 10 mg/kg, N = 5) was 61 ± 18.5 IU/L. The AST ([2]; female, 10 mg/kg, N = 5) was 83 ± 19.0 IU/L, the BUN ([2]; female, 10 mg/kg, N = 5) was 19 ± 3.0 mg/dL and the TBIL ([2]; female, 10 mg/kg, N = 5) was 0.1 ± 0.05 mg/dL. The ALP ([2]; female, 15 mg/kg, N = 4) was 62 ± 18.4 IU/L, the ALT ([2]; female, 15 mg/kg, N = 4) was 90 ± 27.2 IU/L and the AST ([2]; female, 15 mg/kg, N = 4) was 93 ± 12.5 IU/L. For the same molecule, the BUN ([2]; female, 15 mg/kg, N = 4) was 22 ± 2.5 mg/dL, the TBIL ([2]; female, 15 mg/kg, N = 4) was 0.1 ± 0^b mg/dL and the ALP ([2]; male, 5 mg/kg, N = 4) was 68 ± 13.8 IU/L. The ALT ([2]; male, 5 mg/kg, N = 4) was 124 ± 71.5 IU/L, the AST ([2]; male, 5 mg/kg, N = 4) was 92 ± 28.6 IU/L and the BUN ([2]; male, 5 mg/kg, N = 4) was 26 ± 2.2 mg/dL. The TBIL ([2]; male, 5 mg/kg, N = 4) was 0.2 ± 0.05 mg/dL, the ALP ([2]; male, 10 mg/kg, N = 5) was 73 ± 19.7 IU/L and the ALT ([2]; male, 10 mg/kg, N = 5) was 96 ± 28.3 IU/L. For the same molecule, the AST ([2]; male, 10 mg/kg, N = 5) was 83 ± 23.6 IU/L, the BUN ([2]; male, 10 mg/kg, N = 5) was 31 ± 7.3 mg/dL and the TBIL ([2]; male, 10 mg/kg, N = 5) was 0.2 ± 0.04 mg/dL. For the same molecule, the ALP ([2]; male, 15 mg/kg, N = 4) was 58 ± 10.5 IU/L, the ALT ([2]; male, 15 mg/kg, N = 4) was 67 ± 32.3 IU/L and the AST ([2]; male, 15 mg/kg, N = 4) was 63 ± 13.5 IU/L. It also gave a BUN ([2]; male, 15 mg/kg, N = 4) of 23 ± 2.9 mg/dL, a TBIL ([2]; male, 15 mg/kg, N = 4) of 0.2 ± 0.05 mg/dL and a cell viability [3] of 67%.
